According to paper PMC11026403 (Communications Biology, 2024):

Target: A/Denmark/528/2009 (H1N1)pdm09 NA-H274Y (Influenza A virus, UniProt C3W5S3, H275Y)
Assay type: biochemical, Influenza A virus A/Denmark/528/2009 (H1N1)pdm09

Row | SMILES | IC50 [nM] | NAI susceptibility classification (WHO guidance)
1 | CCC(CC)[C@H](NC(C)=O)[C@@H]1[C@H](O)[C@@H](C(=O)O)C[C@H]1N=C(N)N [peramivir] | 23.5 | highly reduced inhibition (key: <10-fold, normal inhibition; 10–100 fold, reduced inhibition; >100-fold, highly reduced inhibition)
2 | CCC(CC)O[C@@H]1C=C(C(=O)O)C[C@H](N)[C@H]1NC(C)=O [oseltamivir, oseltamivir carboxylate] |  | highly reduced inhibition (key: <10-fold, normal inhibition; 10–100 fold, reduced inhibition; >100-fold, highly reduced inhibition)
